According to PMC7357169, “Blinded, Multicenter Evaluation of Drug-induced Changes in Contractility Using Human-induced Pluripotent Stem Cell-derived Cardiomyocytes” (Toxicological Sciences, 2020):
“Also recorded” adds a separate entry of the source.

Assays:
ERC18 hiPSC-CM EHTs [1] = settings: EHT:ERC
Description: For long-term contractility analysis of sunitinib, hiPSC-CM EHTs were equilibrated to regular cell culture medium without serum (DMEM, Biochrom F0415; penicillin/streptomycin 1% [volume/volume], Gibco 15140; aprotinin 5 µM, Sigma-Aldrich A1153; insulin 1.7 µM, Sigma-Aldrich I9278; glutamine 2000 µM, Gibco 25030-081; triiodothyronine 0.77 nM, European Commission-Joint Research Center IRMM-469; hydrocortisone 137 µM: Sigma-Aldrich H0888). Medium change, drug addition and video-optical contractility analysis was performed daily and contraction data was normalized to time control.
The EHT:ERC platform-cell combination was exposed to 100 µM doxorubicin (C) or 1 µM sunitinib (D) for up to 17.5 hr (C) or up to 8 days (D). CA is shown normalized to time controls.

heart = tested on: heart; set-up: method as in Refs column of Supplementary Table 1; settings: Refs of Supplementary Table 1; cited from earlier work
cardiac contractility = settings: cited from earlier work; for EC50: read-out: Expected effect on contractility in isolated cardiomyocytes/heart muscles, EC50
hiPSC-CMs = assay: CellOPTIQ voltage (FluoVolt) analysis, hiPSC-CMs; assay type: cell-based, human
Description: hiPSC-CMs in 96-well plate were transiently loaded in 50 µl/well of SFM containing FluoVolt (1:200 part B, 1:2000 part A; Life Tech, F10488) for 20 min at 37°C and 5% CO2. After incubation, the medium was replaced with 200 μl/well of SFM. Plates were then incubated at 37°C and 5% CO2 for 15 min before recording, which were made using a ×40 (NAO.6) objective at 10 KHz. […] Electrophysiology data were analyzed using CellOPTIQ proprietary software of Clyde Biosciences and were normalized to a maximum amplitude of 1 and minimum of 0 to standardize height for comparison of traces created in OriginPro (OriginLab version 7.5). Contractility data were analyzed based on pixel displacement using an ImageJ plug-in. […]
Action potential duration (APD30, APD90) and triangulation (APD90–APD30) were calculated from voltage waveforms to determine whether electrophysiology was altered, including the appearance of arrhythmias. For Ca^2+ handling, amplitude, time to peak, and decay time were assessed, whereas similar parameters (contraction amplitude [CA], contraction time [CT], and relaxation time [RT]) were derived for contraction (Supplementary Figure 2). […]

R-PAT hiPSC-CMs [2] = assay: CO:R-PAT contractility after 24 h exposure
Description: We asked whether longer term exposure would affect contractility (Supplementary Figure 7).
Prolonged exposure detects NIs in 2D and 3D cultures of hiPSC-CMs. […] CA is shown normalized to time controls.

[3] = cited from earlier work; for FTPC: free therapeutic plasma concentration, Refs of Supplementary Table 1; for FPTC (free plasma therapeutic concentration): ref Supplementary Table 1
ERC18 hiPSC-CM EHTs [4] = assay: Engineered heart tissue (EHT) contractility, ERC18 hiPSC-CMs; assay type: cell-based, human; settings: for changes in CA on the EHT platform: one range given for three NE drugs incorrectly predicted as PIs, EHT: ERC18 per Table 1
Text: (§1) To generate EHTs, in-house hiPSC lines, R-PAT, and ERC18, were differentiated using 2D-monolayer- (R-PAT) or 3D-embryoid body- (ERC18) protocol and fabricated as recently described ([Breckwoldt et al., 2017]; [Mosqueira et al., 2018]). In brief, casting molds were generated in 24-well plates with 2% agarose (Invitrogen, 15510-019) and Polytetrafluorethylene (PTFE) spacers (EHT Technologies, C0002). PDMS racks (EHT Technologies, C0001) were placed in the 24-well plates so that pairs of PDMS posts reached into each agarose casting mold. A reconstitution mix was prepared consisting of: 1 × 10^6 hiPSC-CM; 81.9 µl cardiomyocyte medium; 10 µl Matrigel basement membrane matrix (BD 354234); 5.5 µl 2 × DMEM; 0.1 µl Y-27632 (10 mM; Biorbyt orb60104); 2.5 µl bovine fibrinogen (5 mg/ml; Sigma F4753). Reconstitution mix (97 µl) was mixed with prealiquoted 3 µl thrombin (100 U/ml; Biopur BP11-10-1104) and pipetted into the agarose casting mold. GCAMP6f-lentiviral particles (multiplicity of infection: 0.3, functional titer) were included in the EHT reconstitution mix for Ca^2+ transient analysis. EHTs started to beat coherently after 10–14 days and were analyzed for contraction and Ca^2+ transient at ≥ 20 days.
(§2) EHTs were transferred from culture medium into preequilibrated (37°C, 40% O2, 7% CO2), modified Tyrode’s solution (in mM, 120 NaCl; 22.6 NaHCO3; 5.4 KCl; 5 glucose; 1 MgCl2; 0.4 NaH2PO4; 0.6–1 CaCl2; 0.05 Na2EDTA; 25 HEPES) for R-PAT and into DMEM (Gibco 21068028; in mM, 110 NaCl; 44 NaHCO3; 5 KCl; 25 glucose; 0.8 MgSO4; 0.9 NaH2PO4, 0.6–1 CaCl2; 25 HEPES, and vitamins and amino acids) for ERC18 EHTs 40 min before analysis to equilibrate to the testing medium. After equilibration, the cumulative concentration response curve was started with baseline recording in preequilibrated medium with Ca^2+ concentration of 0.6–1 mM.
(§3) Contractility analysis was via automated video-optical contractility analysis was performed in 24-well cell culture plates (Nunc, 122475) ([Breckwoldt et al., 2017]). Video files of EHT contractions were analyzed by automated EHT figure recognition software (EHT Technologies, A0001). Top and bottom ends of EHT contour were identified and followed during the course of recording. Force was calculated based on shortening during contraction, elastic propensity, and geometry of PDMS posts.
(§4) Data were normalized to a pool of time-matched controls (contractility analysis, ERC18: n = 22 EHTs/7.0 experiments; R-PAT: 16 EHTs/5.0 experiments; combined contractility- and Ca^2+ transient-analysis: 21 EHTs/8.0 experiments) used for all contractility/combined contractility- and Ca^2+ transient-measurements. Data are plotted as relative change to the mean baseline, normalized to pool time control. Statistical significance was evaluated by GraphPad Software, 1-way ANOVA with Dunnett’s multiple comparisons test versus baseline.

R-PAT hiPSC-CM EHTs = assay: Engineered heart tissue (EHT) contractility, R-PAT hiPSC-CMs; assay type: cell-based, human
Text: as §1, §2, §3, §4

R-PAT hiPSC-CMs [5] = assay: CellOPTIQ (CO) contractility, R-PAT hiPSC-CM 2D monolayers; assay type: cell-based, human; settings: mean maximum measurable percentage change relative to baseline, at concentration of column Conc μM or cell superscript
Description: Manufacturer instructions were followed for the commercial hiPSC lines. […] The same plates were used for R-PAT hiPSC-CMs, which were seeded at 40 000 cells/well and maintained until days 20 and 21 of differentiation before use.
hiPSC-CMs in 96-well plate were transiently loaded in 50 µl/well of SFM containing FluoVolt (1:200 part B, 1:2000 part A; Life Tech, F10488) for 20 min at 37°C and 5% CO2. After incubation, the medium was replaced with 200 μl/well of SFM. Plates were then incubated at 37°C and 5% CO2 for 15 min before recording, which were made using a ×40 (NAO.6) objective at 10 KHz. […] Baselines and drug addition were as described for the TTM system. Electrophysiology data were analyzed using CellOPTIQ proprietary software of Clyde Biosciences and were normalized to a maximum amplitude of 1 and minimum of 0 to standardize height for comparison of traces created in OriginPro (OriginLab version 7.5). Contractility data were analyzed based on pixel displacement using an ImageJ plug-in. This plug-in uses a sum of absolute differences algorithm.

[6] = isolated cardiomyocytes/heart muscles, Refs of Supplementary Table 1
[7] = EHT: ERC18, mean maximum measurable percentage change relative to baseline, at concentration of column Conc μM or cell superscript
[8] = EHT: R-PAT, mean maximum measurable percentage change relative to baseline, at concentration of column Conc μM or cell superscript

SMILES	Expected cardiac effects in vivo (heart)	Expected effect on contractility in isolated cardiomyocytes/heart muscles (cardiac contractility; [6])	electrophysiology after 30 min exposure (hiPSC-CMs)	effect of exposure to the highest concentration for 24 h (R-PAT hiPSC-CMs [2])	FTPC [3] [µM]	FPTC (free plasma therapeutic concentration) [3] [µM]	EC50 (cardiac contractility; [6]) [µM]	changes in CA on the EHT platform (ERC18 hiPSC-CM EHTs [4])	also measured
COc1cccc2c1C(=O)c1c(O)c3c(c(O)c1C2=O)C[C@@](O)(C(=O)CO)C[C@@H]3O[C@H]1C[C@H](N)[C@H](O)[C@H](C)O1 [Doxorubicin]	NI, time course of cardiotox dose-dependent	PI+NCl and reduced post-rest potentiation at 30 µM (GP), but strong NI at 1000 µM (GP, rat); rate-dependent	altered electrophysiology; also recorded: changes in electrophysiology	loss of contraction and cell death	1 to 2	1 to 2			time after which EHT contraction ceased (ERC18 hiPSC-CM EHTs [1]; 100 µM doxorubicin): 17.5 h; reported inotropic effects (cardiac contractility; ref Kim et al., 1980, Vanboxtel et al., 1978, Wang and Korth, 1995): transient positive inotropy is followed by robust negative inotropy at higher concentrations; inotropy trend with 24 h treatment (R-PAT hiPSC-CMs [2]; 1 to 30 µM, increased CA, decreased CT): trend of positive inotropy
C[C@H](N[C@@H](CCc1ccccc1)C(=O)O)C(=O)N1CCC[C@H]1C(=O)O [Enalaprilat]	None	None			0.12	0.12			inotropic effect via bradykinin B1 receptor activation (cardiac contractility; ACE inhibitors, ref Ignjatovic et al., 2002): positive inotropic effect; CA (contraction amplitude) (ERC18 hiPSC-CM EHTs [4]; [7]): +2 ^10 µM %; CT (contraction time) (ERC18 hiPSC-CM EHTs [4]; [7]): −3%; RT (relaxation time) (ERC18 hiPSC-CM EHTs [4]; [7]): −4%; CA (contraction amplitude) (R-PAT hiPSC-CM EHTs; [8]): +33%; CT (contraction time) (R-PAT hiPSC-CM EHTs; [8]): +5 ^1 µM %; RT (relaxation time) (R-PAT hiPSC-CM EHTs; [8]): −14%; changes in CA on the EHT platform (R-PAT hiPSC-CM EHTs; one range given for three NE drugs incorrectly predicted as PIs, EHT: R-PAT per Table 1): 19%–33; CA (contraction amplitude) (R-PAT hiPSC-CMs [5]): +54%; CT (contraction time) (R-PAT hiPSC-CMs [5]): +20 ^10 µM %; RT (relaxation time) (R-PAT hiPSC-CMs [5]): +34%
COC(=O)N1CCN(Cc2cccc(NC(=O)Nc3ccc(C)nc3)c2F)CC1 [Omecamtiv mecarbil]	PI, prolonged syst. ejection time, small decrease in heart rate	PI, NCl, NL, diastolic shortening (dog myocytes)			0.05 to 0.42		1		increased CT (R-PAT hiPSC-CM EHTs; hiPSC-CMs configured as 3D EHTs, blinded phase, without convincing evidence for increased CA): approximately +40%
CC[C@H](C)C(=O)O[C@H]1C[C@H](O)C=C2C=C[C@H](C)[C@H](CC[C@@H](O)C[C@@H](O)CC(=O)O)[C@H]21 [Pravastatin]	None	None			0.018	0.018		19%–33	
CCN(CC)CCNC(=O)c1c(C)[nH]c(/C=C2\C(=O)Nc3ccc(F)cc32)c1C [Sunitinib]	NI, NC at high doses, chronic cardiotox		altered electrophysiology	loss of contraction and cell death	0.003	0.003			CA over a 7-day period (ERC18 hiPSC-CM EHTs [1]; 1 µM sunitinib, normalized to time controls): decline in CA; IC50 (cardiac contractility; negative inotropy, isolated cardiomyocytes/heart muscles, Refs of Supplementary Table 1, read-out: Expected effect on contractility in isolated cardiomyocytes/heart muscles, IC50): 10 µM
CCCCNC(=O)NS(=O)(=O)c1ccc(C)cc1 [Tolbutamide]	None or PI (dogs, men)	None (canine CM) or small PI (rabbit atria, rat heart)					~30	19%–33	
